A word on the IC50: it is the point on the concentration scale where inhibition reaches its midpoint.

Sequence of SHP2 (Q06124 whole entry): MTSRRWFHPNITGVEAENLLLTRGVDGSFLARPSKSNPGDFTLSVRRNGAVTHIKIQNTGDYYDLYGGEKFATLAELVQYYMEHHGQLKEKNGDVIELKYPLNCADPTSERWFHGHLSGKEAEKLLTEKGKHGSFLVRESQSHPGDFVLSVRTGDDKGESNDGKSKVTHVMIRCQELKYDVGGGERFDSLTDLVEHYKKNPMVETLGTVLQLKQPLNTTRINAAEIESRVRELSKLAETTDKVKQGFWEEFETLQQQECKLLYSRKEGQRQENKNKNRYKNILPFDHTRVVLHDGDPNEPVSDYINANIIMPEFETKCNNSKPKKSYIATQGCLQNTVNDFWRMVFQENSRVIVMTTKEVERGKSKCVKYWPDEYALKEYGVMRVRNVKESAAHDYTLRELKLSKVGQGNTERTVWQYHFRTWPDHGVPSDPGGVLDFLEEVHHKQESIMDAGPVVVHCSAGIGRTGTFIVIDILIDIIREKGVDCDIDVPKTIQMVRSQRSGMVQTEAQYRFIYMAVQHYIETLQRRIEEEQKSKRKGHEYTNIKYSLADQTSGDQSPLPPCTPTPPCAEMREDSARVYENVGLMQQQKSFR

The experiment has as its target SHP2 (Homo sapiens (Human), UniProt Q06124). Kind of experiment: SHP2 allosteric inhibition experiment (DiFMUP fluorescence). The experiment is classed as biochemical. To be noted: 0.5 nM SHP2 activated with 0.5 μM peptide IRS1_pY1172(dPEG8)pY1222; substrate DiFMUP; 25° C.; read-out: IC50 values of compounds inhibiting SHP2. An excerpt:
SHP2 allosteric inhibition experiment
SHP2 is allosterically activated through the activation of a bis-tyrosyl-phosphorylated peptide and Src Homology 2 (SH2) domains. The activation steps followed result in the release of the auto-inhibition interface, which in turn activates the SHP2 protein tyrosine phosphatase (PTP) and can be used for substrate recognition and reaction catalysis. The SHP2 catalytic activity is monitored by a rapid fluorescent mode with the alternative substrate DiFMUP.
The phosphatase reaction was conducted in 384-well black polystyrene plates (Corning, Cat #3575) with flat bottom, low edge and non-binding surface at room temperature and 25 μl final volume of the following buffer condition: 60 mM HEPES, pH 7.2, 75 mM NaCl, 75 mM KCl, 1 mM EDTA, 0.05% P-20, 5 mM DTT.
The following experiments were conducted to monitor the SHP2 inhibition by the compounds (at concentrations of 0.0003-100 μM) in this invention:
Wherein, incubate 0.5 nM SHP2 with 0.5 μM peptide IRS1_pY1172 (dPEG8) pY1222 (sequence: H2N-LN (pY) IDLDLV (dPEG8) LST (pY) ASINFQK-amide) (SEQ ID NO: 1) (WO2016/203406A1). After incubation at 25° C. for 30-60 minutes, the alternative substrate DiFMUP (Invitrogen, cat #D6567) was added to the reaction and incubated at 25° C. for 30 minutes. The reaction was then carefully […] by adding 5 μL of a 160 μM bpV (Phen) solution (Enzo Life Sciences cat #ALX-270-204). The fluorescence signal was monitored using a microplate reader (VARIOSKAN LUX, Thermo) with excitation and emission wavelengths of 340 nm and 450 nm, respectively. The inhibitory dose-response curve is analyzed using a standardized IC50 regression curve based on control-based normalization.
Turning to `C[C@@H]1OCC2(CCN(c3cnc(Sc4cccc(N5CCCC5=O)c4Cl)cn3)CC2)[C@@H]1N` [Example 1], the IC50 stood at 7.69 nM.

Regarding `C[C@@H]1OCC2(CCN(c3cnc(Sc4cccc(Nc5cnccn5)c4Cl)cn3)CC2)[C@@H]1N` [Example 2], the IC50 was 2.71 nM.

`C[C@@H]1OCC2(CCN(c3cnc(Sc4cccc(-c5ncco5)c4Cl)cn3)CC2)[C@@H]1N` [Example 3]: the IC50 is 1.26 nM.

Consider `C[C@@H]1OCC2(CCN(c3cnc(Sc4cccc(N5CCCC5)c4Cl)cn3)CC2)[C@@H]1N` [Example 4], for which the IC50 was determined as 7.88 nM.

Take `C[C@@H]1OCC2(CCN(c3cnc(Sc4cccc(-c5ccn(C)n5)c4Cl)cn3)CC2)[C@@H]1N` [Example 5]: the IC50 came out at 2.12 nM.

On to `C[C@@H]1OCC2(CCN(c3cnc(Sc4cccc(-c5cnccn5)c4Cl)cn3)CC2)[C@@H]1N` [Example 6], for which the IC50 was found to be 1.31 nM.

As for `C[C@@H]1OCC2(CCN(c3cnc(Sc4ccnc(-c5cnccn5)c4Cl)cn3)CC2)[C@@H]1N` [Example 7], the IC50 worked out at 41.6 nM.

`C[C@@H]1OCC2(CCN(c3cnc(Sc4cccc(-c5cnccn5)c4Cl)c(N)n3)CC2)[C@@H]1N` [Example 8]: the IC50 came out at 5.12 nM.

`C[C@@H]1OCC2(CCN(c3cnc(Sc4cccc(-c5ncccn5)c4Cl)cn3)CC2)[C@@H]1N` [Example 9]: the IC50 is 6.61 nM.

As to `C[C@@H]1OCC2(CCN(c3cnc(Sc4cccc(NC(=O)c5cccc(F)c5Cl)c4Cl)cn3)CC2)[C@@H]1N` [Example 10], the IC50 came out at 5.1 nM.

On to `C[C@@H]1OCC2(CCN(c3cnc(Sc4cccc(NC(=O)c5c(O)nc6n(c5=O)CCCC6)c4Cl)cn3)CC2)[C@@H]1N` [Example 11], for which the IC50 was 0.31 nM.

In the case of `C[C@@H]1OCC2(CCN(c3cnc(Sc4cccc(NC(=O)c5ccn(C)n5)c4Cl)cn3)CC2)[C@@H]1N` [Example 12], the IC50 worked out at 3.59 nM.

On to `C[C@@H]1OCC2(CCN(c3cnc(Sc4cccc(NC(=O)c5cc(F)c(F)cc5Cl)c4Cl)cn3)CC2)[C@@H]1N` [Example 13], for which the IC50 was determined as 5.88 nM.

In the case of `C[C@@H]1OCC2(CCN(c3cnc(Sc4cccc(-c5nc6ccccc6o5)c4Cl)cn3)CC2)[C@@H]1N` [Example 14], the IC50 turned out to be 9.24 nM.

Consider `C[C@@H]1OCC2(CCN(c3cnc(Sc4cccc(-c5nc(C#N)co5)c4Cl)cn3)CC2)[C@@H]1N` [Example 15], for which the half-maximal inhibitory concentration (IC50) came to 4.06 nM.

Turning to `Cc1ncsc1-c1cccc(Sc2cnc(N3CCC4(CC3)CO[C@@H](C)[C@H]4N)cn2)c1Cl` [Example 16], the IC50 stood at 4.9 nM.

In the case of `C[C@@H]1OCC2(CCN(c3cnc(Sc4cccc(-c5nc(C#N)cs5)c4Cl)cn3)CC2)[C@@H]1N` [Example 17], the IC50 turned out to be 4.35 nM.

With `Cc1csc(-c2cccc(Sc3cnc(N4CCC5(CC4)CO[C@@H](C)[C@H]5N)cn3)c2Cl)n1` [Example 18], the IC50 came out at 7.93 nM.

Take `C[C@@H]1OCC2(CCN(c3cnc(Sc4cccc(-c5nc(C(N)=O)co5)c4Cl)cn3)CC2)[C@@H]1N` [Example 19]: the IC50 was 1.95 nM.

For the molecule `C[C@@H]1OCC2(CCN(c3cnc(Sc4cccc(-c5nc(C(=O)O)co5)c4Cl)cn3)CC2)[C@@H]1N` [Example 20], the IC50 amounted to 1.27 nM.

On to `C[C@@H]1OCC2(CCN(c3cnc(Sc4cccc(-c5ccc(C#N)o5)c4Cl)cn3)CC2)[C@@H]1N` [Example 21], for which the IC50 is 6.01 nM.

Consider `C[C@@H]1OCC2(CCN(c3cnc(Sc4cccc(NC(=O)c5ccccc5C(=O)O)c4Cl)cn3)CC2)[C@@H]1N` [Example 22], for which the IC50 is 1.72 nM.

Take `C[C@@H]1OCC2(CCN(c3cnc(Sc4cccc(-c5cnn6cccnc56)c4Cl)cn3)CC2)[C@@H]1N` [Example 23]: the IC50 came to 3.28 nM.

Take `Cc1coc(-c2cccc(Sc3cnc(N4CCC5(CC4)CO[C@@H](C)[C@H]5N)cn3)c2Cl)n1` [Example 24]: the IC50 stood at 2.41 nM.

Consider `CCn1ccc(-c2cccc(Sc3cnc(N4CCC5(CC4)CO[C@@H](C)[C@H]5N)cn3)c2Cl)n1` [Example 25], for which the IC50 amounted to 1.74 nM.

For the molecule `C[C@@H]1OCC2(CCN(c3cnc(Sc4cccc(-c5cn6ccnc6cn5)c4Cl)cn3)CC2)[C@@H]1N` [Example 26], the IC50 was determined as 6.33 nM.

Turning to `C[C@@H]1OCC2(CCN(c3cnc(Sc4cccc(-c5nc(C#N)co5)c4Cl)cn3)CC2)[C@@H]1N` [Example 27], the IC50 came to 3.51 nM.

Consider `C[C@@H]1OCC2(CCN(c3cnc(Sc4cccc(-c5cccs5)c4Cl)cn3)CC2)[C@@H]1N` [Example 28], for which the IC50 turned out to be 9.4 nM.

For the molecule `C[C@@H]1OCC2(CCN(c3cnc(Sc4cccc(-c5cnc6ccnn6c5)c4Cl)cn3)CC2)[C@@H]1N` [Example 29], the IC50 stood at 6.62 nM.

`C[C@@H]1OCC2(CCN(c3cnc(Sc4cccc(NC(=O)c5cc6n(n5)CCCC6)c4Cl)cn3)CC2)[C@@H]1N` [Example 30]: the IC50 worked out at 6.45 nM.

For the molecule `C[C@@H]1OCC2(CCN(c3cnc(Sc4cccc(N5C(=O)C6CC6C5=O)c4Cl)cn3)CC2)[C@@H]1N` (stereo partly shown) [Example 31], the IC50 is 7.91 nM.

Regarding `C[C@@H]1OCC2(CCN(c3cnc(Sc4cccc(-c5ccn6nccc6n5)c4Cl)cn3)CC2)[C@@H]1N` [Example 32], the IC50 amounted to 2.82 nM.

For `C[C@@H]1OCC2(CCN(c3cnc(Sc4cccc(-c5nccs5)c4Cl)cn3)CC2)[C@@H]1N` [Example 34], the IC50 is 5.34 nM.

Turning to `C[C@@H]1OCC2(CCN(c3cnc(Sc4cccc(NC(=O)c5ncccn5)c4Cl)cn3)CC2)[C@@H]1N` [Example 35], the IC50 amounted to 2.91 nM.

`C[C@@H]1OCC2(CCN(c3cnc(Sc4cccc(NC(=O)c5c(O)nc6ccccn6c5=O)c4Cl)cn3)CC2)[C@@H]1N` [Example 36]: the IC50 was found to be 6.42 nM.

For the molecule `C[C@@H]1OCC2(CCN(c3cnc(Sc4cccc(NC(=O)c5ccccc5O)c4Cl)cn3)CC2)[C@@H]1N` [Example 37], the IC50 was found to be 9.01 nM.

`C[C@@H]1OCC2(CCN(c3cnc(Sc4cccc(NC(=O)c5cc(Cl)ccc5O)c4Cl)cn3)CC2)[C@@H]1N` [Example 38]: the IC50 worked out at 9.41 nM.

In the case of `C[C@@H]1OCC2(CCN(c3cnc(Sc4cccc(NC(=O)c5cc6n(n5)CCC6)c4Cl)cn3)CC2)[C@@H]1N` [Example 39], the IC50 worked out at 8.3 nM.

On to `CCn1cc(-c2cccc(Sc3cnc(N4CCC5(CC4)CO[C@@H](C)[C@H]5N)cn3)c2Cl)cn1` [Example 40], for which the IC50 turned out to be 4.4 nM.

Turning to `C[C@@H]1OCC2(CCN(c3cnc(Sc4cccc(-c5cnc6[nH]ccc6n5)c4Cl)cn3)CC2)[C@@H]1N` [Example 41], the IC50 came to 6.2 nM.

Take `C[C@@H]1OCC2(CCN(c3cnc(Sc4cccc(-c5cnn(CCO)c5)c4Cl)cn3)CC2)[C@@H]1N` [Example 42]: the IC50 is 3.4 nM.

Take `C[C@@H]1OCC2(CCN(c3cnc(Sc4cccc(Nc5ncccn5)c4Cl)cn3)CC2)[C@@H]1N` [Example 43]: the IC50 came to 7.5 nM.

On to `C[C@@H]1OCC2(CCN(c3cnc(Sc4cccc(Nc5cnn(C)c5)c4Cl)cn3)CC2)[C@@H]1N` [Example 44], for which the IC50 came out at 7.3 nM.
